Drawing on US20250122223A1, “HETEROCYCLIC COMPOUNDS AS UBIQUITIN SPECIFIC PROTEASE 7 INHIBITORS” (ALMAC DISCOVERY LIMITED, priority 2022, published 2025), this text covers IC50 for 21 compounds.

Structures are written as SMILES.

The target of assay [1] is T1, USP7 (Homo sapiens (Human), UniProt Q93009). The assay is described as follows: USP7 fluorescence polarisation (FP) assay with ubiquitin-Lys-TAMRA substrate. The class given is biochemical. For orientation: Fluorescence polarisation rises when a labelled molecule tumbles more slowly, as on binding a larger partner.
For assay [2], the target named is T1, USP7. The assay is described as follows: Target engagement assay-HTRF, competition with HA-Ub-VPS probe in HEK293 cells stably expressing Flag-tagged USP7. It is filed as cell-based. As to conditions: HEK293 stable clone M6C5, 2 h treatment; read-out: Cellular target engagement: HEK293 Stable clone M6C5 USP7 IC50. How it is done: HEK293 cells stably expressing Flag-tagged USP7 were treated with vehicle (DMSO) or compound (using 50 μM starting concentration and 11 dp using 1:3 serial dilution) for 2 h and subsequently lysed on ice and homogenised. Cell lysate and HA-Ub-VPS probe was then added to a white flat bottomed 384 well plate (Greiner) to a total volume of 10 μL and incubated for 40 min. 10 μL of D2 and Tb detection antibodies were subsequently added to give a final assay volume of 20 μL. Following incubation, HTRF were measured using a Pherastar FSX (BMG Labtech) exciting at 337 nm and measuring the emission at 620/665 nm. The HTRF ratiometric signal was derived and subsequently normalised to the lysate only controls. Data were plotted and fitted, and the concentrations resulting in 50% inhibition (IC50) were calculated using the non-linear regression curve fitting model using GraphPad Prism. IC50 values for the inhibitors of the invention are compiled in Table 1 above and represent the average of at least duplicate experiments.

The mark [3] stands for this setting: average of at least duplicate experiments, read-out: Biochemical: USP7 IC50.
[4] abbreviates: biochemical inhibition, read-out: USP7 IC50 activity (Table 3a, classes).
[5] abbreviates: biochemical inhibition, unit not given in Table 3b (Table 1 and key of Table 3a use μM), read-out: USP7 IC50 activity (Table 3b).

T1 sequence (Q93009 whole entry): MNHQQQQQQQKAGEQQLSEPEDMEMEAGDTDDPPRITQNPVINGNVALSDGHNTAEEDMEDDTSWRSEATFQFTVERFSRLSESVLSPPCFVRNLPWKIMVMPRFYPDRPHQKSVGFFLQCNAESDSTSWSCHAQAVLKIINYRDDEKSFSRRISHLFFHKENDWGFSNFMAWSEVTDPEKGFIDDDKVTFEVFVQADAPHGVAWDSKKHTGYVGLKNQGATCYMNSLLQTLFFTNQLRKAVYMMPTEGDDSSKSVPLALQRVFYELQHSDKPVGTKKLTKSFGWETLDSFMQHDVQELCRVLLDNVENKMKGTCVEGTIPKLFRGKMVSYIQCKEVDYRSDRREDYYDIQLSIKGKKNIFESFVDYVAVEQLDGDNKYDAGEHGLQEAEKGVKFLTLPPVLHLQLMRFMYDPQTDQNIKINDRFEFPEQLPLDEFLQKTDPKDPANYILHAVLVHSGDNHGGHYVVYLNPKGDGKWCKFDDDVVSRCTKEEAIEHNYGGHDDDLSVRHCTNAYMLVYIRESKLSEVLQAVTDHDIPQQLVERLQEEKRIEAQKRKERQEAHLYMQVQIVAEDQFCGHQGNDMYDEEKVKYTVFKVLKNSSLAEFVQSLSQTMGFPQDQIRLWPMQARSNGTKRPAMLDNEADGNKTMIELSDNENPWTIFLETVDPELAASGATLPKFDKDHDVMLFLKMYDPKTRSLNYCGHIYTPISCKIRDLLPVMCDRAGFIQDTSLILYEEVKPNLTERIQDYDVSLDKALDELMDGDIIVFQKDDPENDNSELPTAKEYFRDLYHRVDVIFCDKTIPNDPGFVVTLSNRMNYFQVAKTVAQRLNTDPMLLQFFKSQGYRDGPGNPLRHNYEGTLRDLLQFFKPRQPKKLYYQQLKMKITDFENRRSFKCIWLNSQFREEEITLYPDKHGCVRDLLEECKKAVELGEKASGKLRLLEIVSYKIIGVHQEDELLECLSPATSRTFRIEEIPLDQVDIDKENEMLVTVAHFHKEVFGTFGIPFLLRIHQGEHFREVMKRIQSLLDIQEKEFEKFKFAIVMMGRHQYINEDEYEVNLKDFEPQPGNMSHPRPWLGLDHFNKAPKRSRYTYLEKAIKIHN

`C[C@H]1OCCN[C@@H]1c1ccc(-n2c(Cl)cc3c(=O)n(CC4(O)CCN(C(=O)c5ccc(Cl)cc5)CC4)cnc32)cc1` [Example 8, 6-Chloro-3-((1-(4-chlorobenzoyl)-4-hydroxypiperidin-4-yl)methyl)-7-(4-((2R,3R)-2-methylmorpholin-3-yl)phenyl)-3,7-dihydro-4H-pyrrolo[2,3-d]pyrimidin-4-one]: the IC50 is 0.077 µM in assay [1] (setting [3]), below 0.1 µM in assay [1] (setting [4]), 0.077 µM in assay [1] (setting [5]) and 66 nM in assay [2].
On to `Cc1cc(-n2c(Cl)cc3c(=O)n(CC4(O)CCN(C(=O)[C@]5(C)C[C@H]5C(F)(F)F)CC4)cnc32)ccc1[C@H]1CO[C@H](C)CN1` (single isomer, unassigned) [Example 62], for which the IC50 is 0.038 µM in assay [1] (setting [3]), below 0.1 µM in assay [1] (setting [4]), 0.038 µM in assay [1] (setting [5]) and 100 nM in assay [2].
Consider `CC1(C(=O)N2CCC(O)(Cn3cnc4c(cc(Cl)n4-c4ccc([C@H]5COCCN5)cc4)c3=O)CC2)CC1C(F)(F)F` (stereo partly drawn) [Example 83, 6-Chloro-3-((4-hydroxy-1-(1-methyl-2-(trifluoromethyl)cyclopropane-1-carbonyl)piperidin-4-yl)methyl)-7-(4-((S)-morpholin-3-yl)phenyl)-3,7-dihydro-4H-pyrrolo[2,3-d]pyrimidin-4-one], for which the IC50 in assay [1] (setting [3]) is 0.028 µM; in assay [1] (setting [4]), below 0.1 µM; in assay [1] (setting [5]), 0.028 µM; in assay [2] it was 76 nM.
With `Cc1ccc(C(=O)N2CCC(O)(Cn3cnc4c(cc(Cl)n4-c4ccc([C@H]5CO[C@H](C)CN5)c(C)c4)c3=O)CC2)c(Cl)c1` [Example 57, 6-Chloro-3-((1-(2-chloro-4-methylbenzoyl)-4-hydroxypiperidin-4-yl)methyl)-7-(3-methyl-4-((3S,6R)-6-methylmorpholin-3-yl)phenyl)-3,7-dihydro-4H-pyrrolo[2,3-d]pyrimidin-4-one], the IC50 in assay [1] (setting [4]) was below 0.1 µM; in assay [1] (setting [5]), 0.084 µM.
Regarding `O=C(N1CCC(O)(Cn2cnc3c(cc(Cl)n3-c3ccc([C@H]4COCCN4)cc3)c2=O)CC1)C1(C2CC2)CC1` (single isomer, unassigned) [Example 79], the IC50 in assay [1] (setting [4]) is below 0.1 µM; in assay [1] (setting [5]), 0.039 µM.
The like results for `CC1(C(=O)N2CCC(O)(Cn3cnc4c(cc(Cl)n4-c4ccc([C@@H]5COCCN5)cc4)c3=O)CC2)CC1C(F)(F)F` (stereo partly drawn) [Example 84, 6-Chloro-3-((4-hydroxy-1-(1-methyl-2-(trifluoromethyl)cyclopropane-1-carbonyl)piperidin-4-yl)methyl)-7-(4-((R)-morpholin-3-yl)phenyl)-3,7-dihydro-4H-pyrrolo[2,3-d]pyrimidin-4-one] were, in that order, below 0.1 µM and 0.045 µM.
The like results for `CC[C@H]1CN[C@H](c2ccc(-n3c(Cl)cc4c(=O)n(CC5(O)CCN(C(=O)c6ccc(F)cc6)CC5)cnc43)cc2)CO1` [Example 45, 6-Chloro-7-(4-((3R,6S)-6-ethylmorpholin-3-yl)phenyl)-3-((1-(4-fluorobenzoyl)-4-hydroxypiperidin-4-yl)methyl)-3,7-dihydro-4H-pyrrolo[2,3-d]pyrimidin-4-one] were, in that order, 0.1 to 0.25 µM and 0.176 µM.
The like results for `C[C@@]1(C(=O)N2CCC(O)(Cn3cnc4c(cc(Cl)n4-c4ccc([C@H]5COCCN5)cc4)c3=O)CC2)C[C@H]1C(F)(F)F` (single isomer, unassigned) [Example 110, 6-Chloro-3-((4-hydroxy-1-((1R,2R)-1-methyl-2-(trifluoromethyl)cyclopropane-1-carbonyl)piperidin-4-yl)methyl)-7-(4-((S)-morpholin-3-yl)phenyl)-3,7-dihydro-4H-pyrrolo[2,3-d]pyrimidin-4-one or 6-chloro-3-((4-hydroxy-1-((1R,2R)-1-methyl-2-(trifluoromethyl)cyclopropane-1-carbonyl)piperidin-4-yl)methyl)-7-(4-((R)-morpholin-3-yl)phenyl)-3,7-dihydro-4H-pyrrolo[2,3-d]pyrimidin-4-one] were, in that order, below 0.1 µM and 0.079 µM.
Take `O=C(C[C@H](c1ccccc1)C(F)F)N1CCC(O)(Cn2cnc3c(cc(Cl)n3-c3ccc([C@@H]4COCCN4)cc3)c2=O)CC1` (single isomer, unassigned) [Example 85]: the IC50 in assay [1] (setting [4]) was below 0.1 µM; in assay [1] (setting [5]), 0.006 µM.
As to `CC1(C(=O)N2CCC(O)(Cn3cnc4c(cc(Cl)n4-c4ccc([C@H]5COCCN5)cc4)c3=O)CC2)CC1` (single isomer, unassigned) [Example 70], the IC50 in assay [1] (setting [4]) was below 0.1 µM; in assay [1] (setting [5]), 0.022 µM.
The like results for `O=C(c1ccc(Cl)cc1)N1CCC(O)(Cn2cnc3c(cc(Cl)n3-c3ccc([C@@H]4CO[C@@H](C(F)(F)F)CN4)cc3)c2=O)CC1` (racemic) [Example 9, rac-6-Chloro-3-((1-(4-chlorobenzoyl)-4-hydroxypiperidin-4-yl)methyl)-7-(4-((3R,6R)-6-(trifluoromethyl)morpholin-3-yl)phenyl)-3,7-dihydro-4H-pyrrolo[2,3-d]pyrimidin-4-one] were, in that order, 0.25 to 2 µM and 0.42 µM.
On to `C[C@H]1CN[C@H](c2ccc(-n3c(Cl)cc4c(=O)n(CC5(O)CCN(C(=O)CCC6CC6)CC5)cnc43)cc2)CO1` [Example 103, 6-Chloro-3-((1-(3-cyclopropylpropanoyl)-4-hydroxypiperidin-4-yl)methyl)-7-(4-((3R,6S)-6-methylmorpholin-3-yl)phenyl)-3,7-dihydro-4H-pyrrolo[2,3-d]pyrimidin-4-one], for which the IC50 in assay [1] (setting [4]) is 0.1 to 0.25 µM; in assay [1] (setting [5]), 0.211 µM.
The like results for `CC[C@H]1CN[C@H](c2ccc(-n3c(Cl)cc4c(=O)n(CC5(O)CCN(C(=O)[C@@]6(C)C[C@@H]6C)CC5)cnc43)cc2)CO1` [Example 95, 6-Chloro-3-((1-((1 S,2S)-1,2-dimethylcyclopropane-1-carbonyl)-4-hydroxypiperidin-4-yl)methyl)-7-(4-((3R,6S)-6-ethylmorpholin-3-yl)phenyl)-3,7-dihydro-4H-pyrrolo[2,3-d]pyrimidin-4-one] were, in that order, 0.1 to 0.25 µM and 0.132 µM.
As to `C[C@@H]1CN[C@H](c2ccc(-n3c(Cl)cc4c(=O)n(CC5(O)CCN(C(=O)c6ccc(Cl)cc6)CC5)cnc43)cc2)CO1` (single isomer, unassigned) [Example 69], the IC50 in assay [1] (setting [4]) was 0.25 to 2 µM; in assay [1] (setting [5]) it was 0.586 µM.
On to `O=C(C[C@H](c1ccccc1)C(F)(F)F)N1CCC(O)(Cn2cnc3c(cc(Cl)n3-c3ccc([C@@H]4COCCN4)cc3)c2=O)CC1` (single isomer, unassigned) [Example 81], for which the figures for the IC50 in assay [1] (setting [4]) and in assay [1] (setting [5]) were below 0.1 µM and 0.015 µM, respectively.
Turning to `CC1(C)CN[C@@H](c2ccc(-n3c(Cl)cc4c(=O)n(CC5(O)CCN(C(=O)c6ccc(Cl)cc6)CC5)cnc43)cc2)CO1` (single isomer, unassigned) [Example 23], the IC50 is 0.1 to 0.25 µM in assay [1] (setting [4]) and 0.143 µM in assay [1] (setting [5]).
The like results for `O=C(c1ccc(Cl)cc1)N1CCC(O)(Cn2cnc3c(cc(Cl)n3-c3ccc(C4COC5CCCCC5N4)cc3)c2=O)CC1` (stereo not drawn) [Example 53, 6-Chloro-3-((1-(4-chlorobenzoyl)-4-hydroxypiperidin-4-yl)methyl)-7-(4-(octahydro-2H-benzo[b][1,4]oxazin-3-yl)phenyl)-3,7-dihydro-4H-pyrrolo[2,3-d]pyrimidin-4-one] were, in that order, 0.25 to 2 µM and 0.264 µM.
The like results for `C[C@@H]1CN[C@@H](c2ccc(-n3c(Cl)cc4c(=O)n(CC5(O)CCN(C(=O)[C@@]6(C)C[C@@H]6C(F)(F)F)CC5)cnc43)cc2)CO1` [Example 109, 6-Chloro-3-((4-hydroxy-1-((1S,2S)-1-methyl-2-(trifluoromethyl)cyclopropane-1-carbonyl)piperidin-4-yl)methyl)-7-(4-((3S,6R)-6-methylmorpholin-3-yl)phenyl)-3,7-dihydro-4H-pyrrolo[2,3-d]pyrimidin-4-one] were, in that order, 0.1 to 0.25 µM and 0.182 µM.
The like results for `C[C@@H]1CN[C@@H](c2ccc(-n3c(Cl)cc4c(=O)n(CC5(O)CCN(C(=O)[C@]6(C)C[C@H]6C(F)(F)F)CC5)cnc43)cc2)CO1` [Example 108, 6-Chloro-3-((4-hydroxy-1-((1R,2R)-1-methyl-2-(trifluoromethyl)cyclopropane-1-carbonyl)piperidin-4-yl)methyl)-7-(4-((3S,6R)-6-methylmorpholin-3-yl)phenyl)-3,7-dihydro-4H-pyrrolo[2,3-d]pyrimidin-4-one] were, in that order, below 0.1 µM and 0.042 µM.
With `C[C@H]1CN[C@H](c2ccc(-n3c(Cl)cc4c(=O)n(CC5(O)CCN(C(=O)c6cccc(Cl)c6)CC5)cnc43)cc2)CO1` [Example 35, 6-Chloro-3-((1-(3-chlorobenzoyl)-4-hydroxypiperidin-4-yl)methyl)-7-(4-((3R,6S)-6-methylmorpholin-3-yl)phenyl)-3,7-dihydro-4H-pyrrolo[2,3-d]pyrimidin-4-one], the IC50 in assay [1] (setting [4]) is 0.1 to 0.25 µM; in assay [1] (setting [5]), 0.224 µM.
The like results for `C[C@H]1COC[C@@H](c2ccc(-n3c(Cl)cc4c(=O)n(CC5(O)CCN(C(=O)C6(C)CC6)CC5)cnc43)cc2)N1` (racemic) [Example 2, rac-6-Chloro-3-((4-hydroxy-1-(1-methylcyclopropane-1-carbonyl)piperidin-4-yl)methyl)-7-(4-((3R,5S)-5-methylmorpholin-3-yl)phenyl)-3,7-dihydro-4H-pyrrolo[2,3-d]pyrimidin-4-one] were, in that order, below 0.1 µM and 0.046 µM.

Usually IC50 stands for the midpoint of a concentration-inhibition curve.
